Source: patent US10336732B2, “1-heterocyclyl isochromanyl compounds and analogs for treating CNS disorders” (Sunovion Pharmaceuticals Inc., priority 2015, dated 2019)

What was measured:
[1] = system: α2 (non-selective); test: In vitro radioligand binding assay, α2 (non-selective), [3H]RX 821002; design: concentration or dose not given beside the values; conditions: rat cerebral cortex membranes
Procedure: (§1) Certain compounds were tested by in vitro binding assays using standard procedures. […] These receptors and assays are well known to those skilled in the art, as exemplified by the following: Abramovitz, M. et al. (2000), Biochem. Biophys. Acta., 1483: 285-293 (EP4, IP (PGI2)); Aharony, D. et al. (1993), Mol. Pharmacol., 44: 356-363 (NK2); Ardati, A. et al. (1997), Mol. Pharmacol., 51: 816-824 (NOP (ORL1)); Bignon, E. et al. (1999), J. Pharmacol. Exp. Ther. 289: 742-751 (CCK1 (CCKA)); Bloomquist, B. T. et al. (1998), Biochem. Biophys. Res. Commun., 243: 474-479 (GAL2); Brockhaus, M. et al. (1990), Proc. Natl. Acad. Sci. U.S.A., 87: 3127-3131 (TNF-α); Brown, G. B. (1986), J. Neurosci., 6: 2064-2070 (Na+ channel (site 2)); Buchan, K. W. et al. (1994), Brit. J. Pharmacol., 112: 1251-1257 (ETA); Cesura, A. M. et al. (1990), Mol. Pharmacol., 37: 358-366 (MAO-A); Choi, D. S. et al. (1994), FEBS Lett., 352: 393-399 (5-HT2B); Clark, A. F. et al. (1996), Invest. Ophtalmol. Vis. Sci., 37: 805-813 (GR); Couvineau, A. et al. (1985), Biochem. J., 231: 139-143 (VPAC1 (VIP1)); Dorje, F. et al. (1991), J. Pharmacol. Exp. Ther., 256: 727-733 (M1, M2, M3, M4); Ferry, G. et al. (2001), Eur. J. Pharmacol., 417: 77-89 (PPARγ); Fuchs, S. et al. (2001), Mol. Med., 7: 115-124 (ETB); Fuhlendorff, J. et al. (1990), Proc. Natl. Acad. Sci. U.S.A., 87: 182-186 (Y2); Ganapathy M E. et al. (1999), J. Pharmacol. Exp. Ther., 289: 251-260 (sigma (non-selective)); Gopalakrishnan, M. et al. (1996), J. Pharmacol. Exp. Ther., 276: 289-297 (N neuronal α4β2); Greengrass, P. and Bremner, R. (1979), Eur. J. Pharmacol., 55: 323-326 (α1 (non-selective)); Grandy, D. K. et al. (1989), Proc. Natl. Acad. Sci. U.S.A., 86: 9762-9766 (D25); Guard, S. et al. (1993), Eur. J. Pharmacol., 240:177-184 (BB (non-selective)); Heuillet, E. et al. (1993), J. Neurochem., 60: 868-876 (NK1, P2X); Hope, A. G. et al. (1996), Brit. J. Pharmacol., 118: 1237-1245 (5-HT3); Hoyer, D. et al. (1985), Eur. J. Pharmacol., 118: 1-12 (5-HT1B); Hugues, M. et al. (1982), J. Biol. Chem., 257: 2762-2769 (5-HT2A, SKCa channel); Joseph, S. S. et al. (2004), Naun.-Sch. Arch. Pharm., 369: 525-532 (β2); Le, M. T. et al. (2005), Eur. J. Pharmacol., 513: 35-45 (AT1); Le Fur, G. et al. (1983), Life Sci., 33: 449-457) (BZD (peripheral); Lee, Y. M. et al. (1993), J. Biol. Chem., 268: 8164-8169 (CCK2 (CCKB)); Leurs, R. et al. (1994), Brit. J. Pharmacol., 112: 847-854 (H2); Levin, M. C. et al. (2002), J. Biol. Chem., 277: 30429-30435 (11); Lewin, A. H. et al. (1989), Mol. Pharmacol., 35: 189-194 (Cl− channel (GABA-gated)); Lukas, R. J. (1986), J. Neurochem., 46: 1936-1941 (N muscle-type); Luthin, D. R. et al. (1995), Mol. Pharmacol., 47: 307-313; (A2A); Mackenzie, R. G. et al. (1994), Eur. J. Pharmacol., 266: 79-85 (D3); Mulheron, J. G. et al. (1994), J. Biol. Chem., 269: 12954-12962 (5-HT1A); Meng, F. et al. (1993), Proc. Natl. Acad. Sci. U.S.A., 90: 9954-9958 (κ (KOP)); Monsma, F. J. et al. (1993), Mol. Pharmacol., 43: 320-327 (5-HT6); Neote, K. et al. (1993), Cell, 72: 415-425 (CCR1); Pacholczyk, T. et al. (1991), Nature, 350: 350-354 (sst (non-selective, norepinephrine transporter)); Peralta, E. G. et al. (1987), Embo. J., 6: 3923-3929 (M3); Pristupa, Z. B. et al. (1994), Mol. Pharmacol., 45: 125-135 (dopamine transporter); Pruneau, D. et al. (1998), Brit. J. Pharmacol., 125: 365-372 (B2); Rees, S. et al. (1994), FEBS Lett., 355: 242-246 (5-HT5a); Reynolds, I. J. et al. (1986), J. Pharmacol. Exp. Ther., 237: 731-738 (Ca2+ channel (L, verapamil site)); Rinaldi-Carmona, M. et al. (1996), J. Pharmacol. Exp. Ther., 278: 871-878 (CB1); Salvatore, C. A. et al. (1993), Proc. Natl. Acad. Sci. U.S.A., 90: 10365-10369 (A3); Sarau, H. M. et al. (1997), J. Pharmacol. Exp. Ther., 281: 1303-1311 (NK3); Schioth, H. B. et al. (1997), Neuropeptides, 31: 565-571 (MC4); Sharples, C. […]

[2] = molecular target: T1, 5-HT7 (Homo sapiens, UniProt P34969); test: In vitro radioligand binding assay, 5-HT7, [3H]LSD; design: concentration or dose not given beside the values; conditions: human recombinant (CHO cells)
T1 construct: expressed in transfected cells; host or cells: CHO cells
Procedure: as §1

[3] = molecular target: T2, κ (KOP) (Rattus norvegicus, UniProt P34975); test: In vitro radioligand binding assay, κ (KOP), [3H]U 69593; conditions: rat recombinant (CHO cells)
T2 construct: expressed in transfected cells; host or cells: CHO cells
Procedure: Certain compounds were tested by in vitro binding assays using standard procedures. […] These receptors and assays are well known to those skilled in the art, as exemplified by the following: Abramovitz, M. et al. (2000), Biochem. Biophys. Acta., 1483: 285-293 (EP4, IP (PGI2)); Aharony, D. et al. (1993), Mol. Pharmacol., 44: 356-363 (NK2); Ardati, A. et al. (1997), Mol. Pharmacol., 51: 816-824 (NOP (ORL1)); Bignon, E. et al. (1999), J. Pharmacol. Exp. Ther. 289: 742-751 (CCK1 (CCKA)); Bloomquist, B. T. et al. (1998), Biochem. Biophys. Res. Commun., 243: 474-479 (GAL2); Brockhaus, M. et al. (1990), Proc. Natl. Acad. Sci. U.S.A., 87: 3127-3131 (TNF-α); Brown, G. B. (1986), J. Neurosci., 6: 2064-2070 (Na+ channel (site 2)); Buchan, K. W. et al. (1994), Brit. J. Pharmacol., 112: 1251-1257 (ETA); Cesura, A. M. et al. (1990), Mol. Pharmacol., 37: 358-366 (MAO-A); Choi, D. S. et al. (1994), FEBS Lett., 352: 393-399 (5-HT2B); Clark, A. F. et al. (1996), Invest. Ophtalmol. Vis. Sci., 37: 805-813 (GR); Couvineau, A. et al. (1985), Biochem. J., 231: 139-143 (VPAC1 (VIP1)); Dorje, F. et al. (1991), J. Pharmacol. Exp. Ther., 256: 727-733 (M1, M2, M3, M4); Ferry, G. et al. (2001), Eur. J. Pharmacol., 417: 77-89 (PPARγ); Fuchs, S. et al. (2001), Mol. Med., 7: 115-124 (ETB); Fuhlendorff, J. et al. (1990), Proc. Natl. Acad. Sci. U.S.A., 87: 182-186 (Y2); Ganapathy M E. et al. (1999), J. Pharmacol. Exp. Ther., 289: 251-260 (sigma (non-selective)); Gopalakrishnan, M. et al. (1996), J. Pharmacol. Exp. Ther., 276: 289-297 (N neuronal α4β2); Greengrass, P. and Bremner, R. (1979), Eur. J. Pharmacol., 55: 323-326 (α1 (non-selective)); Grandy, D. K. et al. (1989), Proc. Natl. Acad. Sci. U.S.A., 86: 9762-9766 (D25); Guard, S. et al. (1993), Eur. J. Pharmacol., 240:177-184 (BB (non-selective)); Heuillet, E. et al. (1993), J. Neurochem., 60: 868-876 (NK1, P2X); Hope, A. G. et al. (1996), Brit. […]

T1 sequence (P34969 whole entry): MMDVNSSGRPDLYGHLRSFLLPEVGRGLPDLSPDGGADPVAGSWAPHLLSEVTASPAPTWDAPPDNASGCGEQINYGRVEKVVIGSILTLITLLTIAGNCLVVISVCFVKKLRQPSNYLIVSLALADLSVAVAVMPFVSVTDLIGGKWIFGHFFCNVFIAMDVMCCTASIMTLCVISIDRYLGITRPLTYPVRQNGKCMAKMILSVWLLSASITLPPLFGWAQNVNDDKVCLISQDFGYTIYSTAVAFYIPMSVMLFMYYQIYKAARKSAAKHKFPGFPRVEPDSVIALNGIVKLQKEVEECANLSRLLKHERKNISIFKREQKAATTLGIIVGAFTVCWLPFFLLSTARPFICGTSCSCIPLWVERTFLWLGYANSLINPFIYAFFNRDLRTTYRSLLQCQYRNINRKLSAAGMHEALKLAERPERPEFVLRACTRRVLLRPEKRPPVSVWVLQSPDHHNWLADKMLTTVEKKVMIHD
T2 sequence (P34975 whole entry): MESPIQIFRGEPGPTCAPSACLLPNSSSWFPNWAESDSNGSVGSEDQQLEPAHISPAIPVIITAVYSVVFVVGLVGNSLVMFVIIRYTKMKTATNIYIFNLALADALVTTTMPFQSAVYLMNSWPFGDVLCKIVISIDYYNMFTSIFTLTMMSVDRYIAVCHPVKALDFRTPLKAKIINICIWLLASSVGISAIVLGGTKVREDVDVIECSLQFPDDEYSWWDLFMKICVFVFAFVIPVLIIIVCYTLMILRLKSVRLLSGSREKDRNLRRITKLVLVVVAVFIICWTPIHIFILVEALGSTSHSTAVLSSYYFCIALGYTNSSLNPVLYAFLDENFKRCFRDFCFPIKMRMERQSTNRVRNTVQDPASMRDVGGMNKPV

## Clc1ccc2c(c1)[C@H]([C@@H]1CCCN1)OCC2 [Compound I-29, (S)-2-((R)-7-chloroisochroman-1-yl)pyrrolidine]
[1]
  α2 percent inhibition of specific binding: 97%
[2]
  5HT7 percent inhibition of specific binding: 52%
[3]
  κ (KOP) percent inhibition of specific binding: 89%

## Fc1ccc2c(c1)CCO[C@H]2[C@@H]1CCN1 [Compound I-90, (S)-2-((R)-6-fluoroisochroman-1-yl)azetidine]
[1]
  α2 percent inhibition of specific binding: 71%
[2]
  5HT7 percent inhibition of specific binding: 96%

## Fc1cccc2c1CCO[C@@H]2[C@H]1CCN1 [Compound I-96, (R)-2-((S)-5-fluoroisochroman-1-yl)azetidine]
[1]
  α2 percent inhibition of specific binding: 81%
[2]
  5HT7 percent inhibition of specific binding: 69%

## Fc1ccc2c(c1)[C@H]([C@@H]1CCCN1)OCC2 [Compound I-5, (2S)-2-((R)-7-fluoroisochroman-1-yl)pyrrolidine]
[1]
  α2 percent inhibition of specific binding: 96%
[2]
  5HT7 percent inhibition of specific binding: 60%
[3]
  κ (KOP) percent inhibition of specific binding: 71%

## Fc1cccc2c1[C@H]([C@@H]1CCN1)OCC2 [Compound I-83, (S)-2-((R)-8-fluoroisochroman-1-yl)azetidine]
[1]
  α2 percent inhibition of specific binding: 77%
[2]
  5HT7 percent inhibition of specific binding: 99%

## Fc1cccc2c1CCO[C@@H]2[C@@H]1CCN1 [Compound I-94, (S)-2-((S)-5-fluoroisochroman-1-yl)azetidine]
[2]
  5HT7 percent inhibition of specific binding: 74%
[3]
  κ (KOP) percent inhibition of specific binding: 67%

## Fc1cccc2c1[C@H]([C@@H]1CCCN1)OCC2 [Compound I-1, (S)-2-((R)-8-fluoroisochroman-1-yl)pyrrolidine]
[1]
  α2 percent inhibition of specific binding: 95%
[2]
  5HT7 percent inhibition of specific binding: 88%

## Fc1ccc2c(c1)CCO[C@H]2[C@@H]1CCCN1 [Compound I-9, (S)-2-((R)-6-fluoroisochroman-1-yl)pyrrolidine]
[1]
  α2 percent inhibition of specific binding: 91%
[2]
  5HT7 percent inhibition of specific binding: 80%
